Experimental data from PubChem BioAssay AID1259407 (Chemical Carcinogenesis Research Information System (CCRIS), 2018).
Active and inactive are the calls of the source. The rule behind the calls is not given here.

Test system: CCRIS mutagenicity, Ames/micronucleus/aberration tests
Assay: CCRIS mutagenicity studies
[1] = Test System: AMES SALMONELLA TYPHIMURIUM, Strain/Indicator: TA98, Metabolic Activation: NONE, Method: PREINCUBATION
[2] = Test System: AMES SALMONELLA TYPHIMURIUM, Strain/Indicator: TA100, Metabolic Activation: NONE, Method: PREINCUBATION
[3] = Test System: AMES SALMONELLA TYPHIMURIUM, Strain/Indicator: TA1535, Metabolic Activation: NONE, Method: PREINCUBATION
[4] = Test System: AMES SALMONELLA TYPHIMURIUM, Strain/Indicator: TA100, Metabolic Activation: NONE, Method: STANDARD PLATE

In the case of `Nc1ccc(Sc2ccc(N)cc2)cc1`, the mutagenic call (Test System: AMES SALMONELLA TYPHIMURIUM, Strain/Indicator: TA97, Metabolic Activation: HAMSTER, LIVER, S-9, AROCLOR 1254 (10%), Method: PREINCUBATION) is reported as “active; positive”, the mutagenic call (Test System: AMES SALMONELLA TYPHIMURIUM, Strain/Indicator: TA97, Metabolic Activation: NONE, Method: PREINCUBATION) is reported as “inactive; negative” and the mutagenic call (Test System: AMES SALMONELLA TYPHIMURIUM, Strain/Indicator: TA97, Metabolic Activation: RAT, LIVER, S-9, AROCLOR 1254 (10%), Method: PREINCUBATION) is reported as “active; positive”. The mutagenic call (Test System: AMES SALMONELLA TYPHIMURIUM, Strain/Indicator: TA98, Metabolic Activation: HAMSTER, LIVER, S-9, AROCLOR 1254 (10%), Method: PREINCUBATION) was “active; positive”, the mutagenic call [1] was “inactive; negative” and the mutagenic call (Test System: AMES SALMONELLA TYPHIMURIUM, Strain/Indicator: TA98, Metabolic Activation: RAT, LIVER, S-9, AROCLOR 1254 (10%), Method: PREINCUBATION) was “active; positive”. For the same molecule, the mutagenic call (Test System: AMES SALMONELLA TYPHIMURIUM, Strain/Indicator: TA98, Metabolic Activation: RAT, LIVER, S-9, PCB, Method: PREINCUBATION) was “active; positive”, the mutagenic call (Test System: AMES SALMONELLA TYPHIMURIUM, Strain/Indicator: TA100, Metabolic Activation: HAMSTER, LIVER, S-9, AROCLOR 1254 (10%), Method: PREINCUBATION) was “active; positive” and the mutagenic call [2] was “active; positive”. The mutagenic call (Test System: AMES SALMONELLA TYPHIMURIUM, Strain/Indicator: TA100, Metabolic Activation: RAT, LIVER, S-9, AROCLOR 1254 (10%), Method: PREINCUBATION) was “active; positive”, the mutagenic call (Test System: AMES SALMONELLA TYPHIMURIUM, Strain/Indicator: TA100, Metabolic Activation: RAT, LIVER, S-9, PCB, Method: PREINCUBATION) was “active; positive” and the mutagenic call (Test System: AMES SALMONELLA TYPHIMURIUM, Strain/Indicator: TA1535, Metabolic Activation: HAMSTER, LIVER, S-9, AROCLOR 1254 (10%), Method: PREINCUBATION) was “inactive; negative”. For the same molecule, the mutagenic call [3] was “inactive; negative”, the mutagenic call (Test System: AMES SALMONELLA TYPHIMURIUM, Strain/Indicator: TA1535, Metabolic Activation: RAT, LIVER, S-9, AROCLOR 1254 (10%), Method: PREINCUBATION) was “inactive; negative” and the mutagenic call (Test System: AMES SALMONELLA TYPHIMURIUM, Strain/Indicator: TA1537, Metabolic Activation: HAMSTER, LIVER, S-9, AROCLOR 1254 (10%), Method: PREINCUBATION) was “inactive; negative”. For the same molecule, the mutagenic call (Test System: AMES SALMONELLA TYPHIMURIUM, Strain/Indicator: TA1537, Metabolic Activation: NONE, Method: PREINCUBATION) was “inactive; negative” and the mutagenic call (Test System: AMES SALMONELLA TYPHIMURIUM, Strain/Indicator: TA1537, Metabolic Activation: RAT, LIVER, S-9, AROCLOR 1254 (10%), Method: PREINCUBATION) was “inactive; negative”.
With `c1ccc(Cc2ccc(CC3CO3)cc2)cc1` (stereo unspecified) the mutagenic call [2] was “inactive; negative”, the mutagenic call [4] was “active; positive” and the mutagenic call [3] was “inactive; negative”. The mutagenic call (Test System: AMES SALMONELLA TYPHIMURIUM, Strain/Indicator: TA1535, Metabolic Activation: NONE, Method: STANDARD PLATE) was “active; positive”.
For `CC(=O)N(O)c1ccc(O)cc1`, the mutagenic call (End Point: IN VITRO MICRONUCLEUS, Test System: RAT KIDNEY FIBROBLAST NRK-49F, Metabolic Activation: NONE) was “active; positive”.
For `CCCOC(=O)C=Cc1ccc([N+](=O)[O-])o1`, the mutagenic call [1] was “active; positive”.
For `O=C1c2ccccc2-c2cc([N+](=O)[O-])ccc21`, the mutagenic call (Test System: AMES SALMONELLA TYPHIMURIUM, Strain/Indicator: TA98 (1,8-DNP6), Metabolic Activation: NONE, Method: PREINCUBATION) was “active; positive”, the mutagenic call (Test System: AMES SALMONELLA TYPHIMURIUM, Strain/Indicator: TA98(NR), Metabolic Activation: NONE, Method: PREINCUBATION) was “active; positive” and the mutagenic call (Test System: AMES SALMONELLA TYPHIMURIUM, Strain/Indicator: TA98(NR), Metabolic Activation: RAT LIVER S-9 (10%), Method: PREINCUBATION) was “active; positive”. For the same molecule, the mutagenic call (Test System: AMES SALMONELLA TYPHIMURIUM, Strain/Indicator: TA98(NR), Metabolic Activation: RAT LIVER S-9, 3-METHYLCHOLANTHRENE (10%), Method: PREINCUBATION) was “active; positive”, the mutagenic call (Test System: AMES SALMONELLA TYPHIMURIUM, Strain/Indicator: TA98(NR), Metabolic Activation: RAT LIVER S-9, BETA-NAPHTHAFLAVONE (10%), Method: PREINCUBATION) was “active; positive” and the mutagenic call (Test System: AMES SALMONELLA TYPHIMURIUM, Strain/Indicator: TA98(NR), Metabolic Activation: RAT LIVER S-9, PCB (10%), Method: PREINCUBATION) was “active; positive”. For the same molecule, the mutagenic call (Test System: AMES SALMONELLA TYPHIMURIUM, Strain/Indicator: TA98(NR), Metabolic Activation: RAT LIVER S-9, PHENOBARBITAL (10%), Method: PREINCUBATION) was “active; positive”, the mutagenic call [1] was “active; positive” and the mutagenic call (Test System: AMES SALMONELLA TYPHIMURIUM, Strain/Indicator: TA98, Metabolic Activation: NONE, Method: STANDARD PLATE) was “active; positive”. The mutagenic call (Test System: AMES SALMONELLA TYPHIMURIUM, Strain/Indicator: TA98, Metabolic Activation: RAT, LIVER, S-9, AROCLOR 1254, Method: STANDARD PLATE) was “active; positive”, the mutagenic call [4] was “inactive; negative” and the mutagenic call (Test System: AMES SALMONELLA TYPHIMURIUM, Strain/Indicator: TA100, Metabolic Activation: RAT, LIVER, S-9, AROCLOR 1254, Method: STANDARD PLATE) was “inactive; negative”. The mutagenic call (Test System: AMES SALMONELLA TYPHIMURIUM, Strain/Indicator: TA7001, Metabolic Activation: NONE, Method: PREINCUBATION) was “inactive; negative”, the mutagenic call (Test System: AMES SALMONELLA TYPHIMURIUM, Strain/Indicator: TA7002, Metabolic Activation: NONE, Method: PREINCUBATION) was “active; positive” and the mutagenic call (Test System: AMES SALMONELLA TYPHIMURIUM, Strain/Indicator: TA7003, Metabolic Activation: NONE, Method: PREINCUBATION) was “active; positive”. The mutagenic call (Test System: AMES SALMONELLA TYPHIMURIUM, Strain/Indicator: TA7004, Metabolic Activation: NONE, Method: PREINCUBATION) was “active; positive”, the mutagenic call (Test System: AMES SALMONELLA TYPHIMURIUM, Strain/Indicator: TA7005, Metabolic Activation: NONE, Method: PREINCUBATION) was “active; positive” and the mutagenic call (Test System: AMES SALMONELLA TYPHIMURIUM, Strain/Indicator: TA7006, Metabolic Activation: NONE, Method: PREINCUBATION) was “active; positive”.
